Assay results from patent US20100135905A1, “ASSESSMENT OF CANCER SUSCEPTIBILITY TO MOLECULAR TARGETED THERAPY BY USE OF RECOMBINANT PEPTIDES” (priority 2004, published 2010).

Assays:
LLC tumors [1] = test: In vivo panning of T7 phage peptide library: phage recovered from irradiated LLC tumors; design: species or system mice
Experimental: (§1) GL261 murine glioma cells and Lewis lung carcinoma (LLC) cells were implanted into the hind limb of C57BL/6 mice (see Hallahan et al., 1995b; Hallahan et al., 1998; Hallahan & Virudachalam, 1999).
(§2) For in vivo panning, tumors were irradiated with 3 Gy and approximately 10^10 phage (prepared as described in Example 1) were administered by tail vein injection into each of the tumor bearing mice at 4 hours following irradiation. Tumors were recovered at one hour following injection and amplified in BL21 bacteria. Amplified phage were pooled and re-administered to a tumor-bearing mouse following tumor irradiation. The phage pool was sequentially administered to a total of 6 animals. As a control, wild type phage lacking synthetic peptide inserts were identically administered to a second experimental group of animals.
(§3) To determine the titer of phage binding in a tumor or in normal tissue, recovered phage were amplified in BL21 bacteria. Bacteria were plated and the number of plaques present was counted. To determine the total phage output per organ, the number of plaque forming units (PFU) on each plate was divided by the volume of phage plated and the weight of each organ. Normal variation was observed as a 2-fold difference in PFU. In the present Example, background binding within tumor blood vessels was approximately 10^4 phage. Phage that bound to the vasculature within irradiated tumors show enrichment in the tumor relative to other organs and enrichment in the irradiated tumor relative to the control phage without DNA insert.
(§4) Following six rounds of in vivo panning, fifty recombinant phage peptides that bound within irradiated tumors were randomly selected for further analysis. The nucleic acid sequence encoding recombinant phage was amplified by PCR using primers set forth as SEQ ID NOs: 20-21 (available from Novagen Brand, a unit of EMD Biosciences, Inc., Madison, Wis.). An individual phage suspension was used as template. Amplified peptides were sequenced using an ABI PRISM® 377 sequencer (Applied Biosystems of Foster City, Calif., United States of America).

GL261 tumors = test: In vivo panning of T7 phage peptide library: phage recovered from irradiated GL261 tumors; design: species or system mice; conditions: Experiment A, 3 Gy; for Phage Recovered from GL261 tumors: number of sequenced phage after six rounds; for Phage Recovered from GL261 tumors (Frequency): six rounds
Experimental: as §1, §2, §3, §4

[2] = test system: B16F0 melanoma, lung carcinoma and glioma tumor models; test: Binding of phage-encoded peptides in additional tumor models; format: in vivo; conditions: phage encoding the peptide
From the text: The binding properties of phage encoding HVGGSSV (SEQ ID NO: 1), […] (SEQ ID NO: 2), […] (SEQ ID NO: 3), and SVGSRV (SEQ ID NO: 4) were additionally characterized in a B16F0 melanoma model.

α2bβ3 receptor = molecular target: T1, α2bβ3 receptor (Mus musculus, UniProt O54890+Q9QUM0); test: Phage binding in irradiated tumors with blocking antibody, plaque formation; format: in vivo; conditions: phage encoding the peptide on the capsid protein
T1 construct: from tissue; host or cells: irradiated tumours (tumour vasculature / blood components) in living mice
T1 sequence (Q9QUM0 32-1033): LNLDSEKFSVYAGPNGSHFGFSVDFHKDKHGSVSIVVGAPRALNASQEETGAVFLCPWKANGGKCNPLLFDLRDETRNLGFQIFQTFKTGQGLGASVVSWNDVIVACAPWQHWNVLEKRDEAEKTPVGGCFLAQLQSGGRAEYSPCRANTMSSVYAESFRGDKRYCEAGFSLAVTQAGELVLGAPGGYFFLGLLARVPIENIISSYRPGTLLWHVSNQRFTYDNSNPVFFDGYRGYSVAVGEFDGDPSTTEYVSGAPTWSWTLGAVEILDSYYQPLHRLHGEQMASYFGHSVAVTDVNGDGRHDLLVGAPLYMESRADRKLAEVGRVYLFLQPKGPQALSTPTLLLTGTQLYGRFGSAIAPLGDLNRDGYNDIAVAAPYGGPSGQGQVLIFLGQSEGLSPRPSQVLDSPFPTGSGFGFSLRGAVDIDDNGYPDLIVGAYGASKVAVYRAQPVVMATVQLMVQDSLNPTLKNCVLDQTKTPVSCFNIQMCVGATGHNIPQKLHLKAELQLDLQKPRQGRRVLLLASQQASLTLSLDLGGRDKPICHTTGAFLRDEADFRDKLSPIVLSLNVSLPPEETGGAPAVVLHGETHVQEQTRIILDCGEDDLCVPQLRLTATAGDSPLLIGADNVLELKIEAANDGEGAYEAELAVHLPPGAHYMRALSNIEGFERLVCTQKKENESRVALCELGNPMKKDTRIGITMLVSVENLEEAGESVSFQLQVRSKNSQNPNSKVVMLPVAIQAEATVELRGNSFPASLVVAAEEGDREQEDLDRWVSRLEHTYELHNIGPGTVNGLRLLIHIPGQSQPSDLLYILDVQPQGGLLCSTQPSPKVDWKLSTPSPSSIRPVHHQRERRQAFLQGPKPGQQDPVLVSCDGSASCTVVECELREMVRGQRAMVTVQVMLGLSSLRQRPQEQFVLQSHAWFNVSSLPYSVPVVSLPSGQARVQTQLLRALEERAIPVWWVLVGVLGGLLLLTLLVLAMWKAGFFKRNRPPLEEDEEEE
T1 sequence (O54890 26-787): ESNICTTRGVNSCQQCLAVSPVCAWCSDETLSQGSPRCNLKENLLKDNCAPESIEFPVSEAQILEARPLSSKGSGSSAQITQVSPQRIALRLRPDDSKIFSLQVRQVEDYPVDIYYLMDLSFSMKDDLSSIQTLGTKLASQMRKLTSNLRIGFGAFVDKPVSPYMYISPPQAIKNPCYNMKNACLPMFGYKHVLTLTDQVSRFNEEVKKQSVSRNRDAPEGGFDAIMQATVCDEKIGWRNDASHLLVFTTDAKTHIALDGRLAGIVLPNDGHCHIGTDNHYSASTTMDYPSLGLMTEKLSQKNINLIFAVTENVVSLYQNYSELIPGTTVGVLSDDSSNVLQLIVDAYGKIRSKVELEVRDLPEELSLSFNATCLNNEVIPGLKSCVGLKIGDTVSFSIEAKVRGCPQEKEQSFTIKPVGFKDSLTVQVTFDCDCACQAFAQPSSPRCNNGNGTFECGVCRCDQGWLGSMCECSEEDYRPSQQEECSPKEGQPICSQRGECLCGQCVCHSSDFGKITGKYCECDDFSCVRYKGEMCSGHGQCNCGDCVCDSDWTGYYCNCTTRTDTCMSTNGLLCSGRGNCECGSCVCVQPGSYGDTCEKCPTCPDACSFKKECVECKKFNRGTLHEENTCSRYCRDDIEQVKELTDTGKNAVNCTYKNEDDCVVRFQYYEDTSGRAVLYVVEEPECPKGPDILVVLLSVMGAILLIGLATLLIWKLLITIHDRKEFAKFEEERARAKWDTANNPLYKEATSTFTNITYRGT
Experimental: An anti-α2bβ3 monoclonal antibody was administered by tail vein to determine whether this receptor is required for recombinant phage binding in irradiated tumors. Phage encoding […] (SEQ ID NO: 2) on the capsid protein were injected immediately after blocking antibody or control antibody. Phage were recovered from the tumor and controls organs and quantified by plaque formation. Radiation induced a 4-fold increase in phage binding in tumor. […] Thus, the tumor binding activity of targeting peptide […] (SEQ ID NO: 2) is dependent on its interaction with the α2bβ3 receptor.

LLC tumors [3] = test: 131I-labeled peptide binding in hind limb LLC tumors, well counts; format: in vivo, mice
Experimental: Recombinant peptide and ligand binding to the α2bβ3 integrin is dose dependent, with a threshold dose of 6 Gy and maximal binding at 10 Gy. This is the dose range for induction of apoptosis within tumor endothelium (Garcia-Barros & Kolesnick, 2003). […] To determine whether recombinant peptides bind within tumors following this combined therapy, the recombinant peptide […] (SEQ ID NO: 2) was employed. […] Tumors were resected and counts per minute (CPM) were measured by well counts.

responding tumor = test: Near infrared imaging of Cy7-labeled phage peptide in tumor-bearing mice; format: in vivo, mouse
Experimental: To determine the feasibility of imaging phage peptides binding within tumors, a Xenogen imaging system (Xenogen Corp., Alameda, Calif., United States of America) and near infrared imaging of Cy7-labeled recombinant peptides selected from phage libraries was employed. In order to examine the binding of recombinant phage peptides to responding tumors, preliminary experiments were performed to test the background binding of negative control phage in tumor-bearing animals. The […] was labeled with Cy7 and injected by tail vein into a mouse bearing tumors in both hind limbs. […] The time course of labeled negative control phage circulating throughout the animal over 6 hours was determined. At 1 hour post-injection via the tail vein, Cy7-labeled phage was distributed throughout the entire animal. At 6 hours after tail vein injection, clearance through the kidneys was observed.

D54 and LLC tumors = test: Imaging of Alexfluor 750-conjugated peptide in responding and non-responding tumors; format: in vivo, nude mice
Experimental: D54 and LLC tumors were implanted into both hind limbs of nude mice as described in Example 2. Tumors were grown over the course of seven to 10 days.
At 24 hours following drug administration, mice were injected with Alexfluor 750-conjugated HVGGSSV (SEQ ID NO: 1) peptide through a jugular catheter.

treated tumors = test: Kinetics of Cy 7 conjugated peptide binding to treated tumors, daily imaging; format: in vivo, mouse; conditions: Cy 7 conjugate
Experimental: To study the kinetics of peptide binding to treated tumors, animals were imaged daily following administration of Cy 7 conjugated HVGGSSV (SEQ ID NO: 1) peptide. […] At 40 hours, the peptide was excreted by the kidneys. Tumors were located in the left hind limb.

[4] = test system: tumor vascular endothelium; test: Histochemistry of tumor sections after biotinylated peptide; format: in vivo; conditions: 24 hours after administration
Experimental: To determine whether peptide binds to endothelium or blood components, tumors were sectioned at 24 hours following administration of biotinylated HVGGSSV (SEQ ID NO: 1) peptide. Tumor sections were then stained with strepavidin conjugates for histochemistry.

[5] = Experiment A, number of sequenced phage after six rounds, 3 Gy

SLRGDGSSV (Peptide that binds to LLC and/or GL261 tumors) [peptide isolated by in vivo panning]
Phage Recovered from LLC tumors (LLC tumors [1]; [5]): 7 | Phage Recovered from LLC tumors (Frequency) (LLC tumors [1]; Experiment A, six rounds, 3 Gy): (28%) | Phage Recovered from LLC tumors (Frequency) (LLC tumors [1]; Experiment B): (14%) | Phage Recovered from LLC tumors (LLC tumors [1]; Experiment B, number of sequenced phage): 2 | Phage Recovered from GL261 tumors (GL261 tumors): 2 | Phage Recovered from GL261 tumors (Frequency) (GL261 tumors): (8%) | Tumor models within which the phage-encoded peptide bound [2]: bound within the melanoma, lung carcinoma, and glioma tumor models | Radiation-induced increase in phage binding in tumor (α2bβ3 receptor): 4 fold | Radiolabeled peptide bound in tumors (LLC tumors [3]; tumors treated with 2 Gy alone): 10% | Radiolabeled peptide bound in tumors (LLC tumors [3]; tumors treated with 10 Gy): 89% | Radiolabeled peptide bound in tumors (LLC tumors [3]; tumors treated with SU11248 alone): 9% | Radiolabeled peptide bound in tumors (LLC tumors [3]; tumors treated with SU11248 and 2 Gy): 91% | Radiolabeled peptide bound in tumors (LLC tumors [3]; untreated control tumors (tumors about 8% of body weight)): 8%

HVGGSSV (Peptide that binds to LLC and/or GL261 tumors) [peptide isolated by in vivo panning of a phage library]
Phage Recovered from LLC tumors (LLC tumors [1]; [5]): 7 | Phage Recovered from LLC tumors (Frequency) (LLC tumors [1]; Experiment A, six rounds, 3 Gy): (28%) | Phage Recovered from GL261 tumors (GL261 tumors): 12 | Phage Recovered from GL261 tumors (Frequency) (GL261 tumors): (48%) | Tumor models within which the phage-encoded peptide bound [2]: bound within the melanoma, lung carcinoma, and glioma tumor models | Binding of Cy7-labeled phage peptide in treated tumor (responding tumor; SU11248 and 3 Gy to right hind limb tumor): bound within the responding tumor | Binding of Cy7-labeled phage peptide in tumors (responding tumor; mouse treated with SU11248 40 mg/kg, one hind limb tumor 3 Gy 24 hours prior to imaging): observed in the responding tumor but not an non-responding tumor | Phage binding in negative control tumor (responding tumor; no SU11248 or radiation, 24 hours after tail vein injection): minimal phage binding | Labeled peptide binding in tumor (D54 and LLC tumors; Alexfluor 750 conjugate, tumor treated with SU11248 and radiation, 24 hours after drug): Intense peptide binding | Uptake in tumors treated with SU11248 alone compared to untreated tumors (D54 and LLC tumors; responding versus non-responding tumors): differentially bound to tumors that responded to SU11248 therapy | Labeled peptide binding in tumor (D54 and LLC tumors; tumors not responding to therapy, SU11248 alone): no increase in peptide binding | Time at which peptide was excreted by the kidneys (treated tumors): 40 h | Time over which peptide circulated throughout the mouse (treated tumors): 28 h | Time over which peptide remained bound to the tumor (treated tumors): 162 h | Binding within the intravascular blood components [4]: minimal or no binding | Site of peptide binding in tumor sections ([4]; streptavidin histochemistry): bound primarily to tumor vascular endothelium
